Earlier results in patent US20060159628A1, “Nanoparticulate benzothiophene formulations” (Elan Pharma International Limited, priority 2004, published 2006).

How the values were obtained:
MCF-7 cells = conditions: cell culture
uterine tissue = conditions: ovariectomized (OVX) rats

solubility in water: very slightly soluble
Structure (SMILES): Cl.O=C(c1ccc(OCCN2CCCCC2)cc1)c1c(-c2ccc(O)cc2)sc2cc(O)ccc12 [Raloxifene hydrochloride, methanone, [6-hydroxy-2-(4-hydroxyphenyl)benzo[b]thien-3-yl]-[4-[2-(1-piperidinyl)ethoxy]phenyl]-, hydrochloride]
estrogen-dependent proliferation in MCF-7 cells (MCF-7 cells): inhibits estrogen-dependent proliferation
uterotrophic response (uterine tissue): only minimal uterotrophic response
